Test results: US20020099070A1, “Dihydronaphthyridine potassium channel openers” (priority 2000, published 2002)

Tested on: primary cultured guinea-pig urinary bladder (GPB) cells
Experiment: Membrane hyperpolarization (MHP) assay, DiBAC(4)3 / FLIPR
Assay type: cell-based
Conditions: for Emax / Maximal Response (% P1075): maximal steady-state hyperpolarization, normalized to 10 μM P1075 = 100%; for Emax: read-out: Maximal Response (% P1075); for EC50: membrane hyperpolarization in GPB cells
Procedure: Compounds were evaluated for potassium channel opening activity using primary cultured guinea-pig urinary bladder (GPB) cells.
For the preparation of urinary bladder smooth muscle cells, urinary bladders were removed from male guinea-pigs (Hartley, Charles River, Wilmington, Mass.) weighing 300-400 g and placed in ice-cold Ca^2+-free Krebs solution (Composition, mM: KCl, 2.7; KH2PO4, 1.5; NaCl, 75; Na2HPO4, 9.6; Na2HPO4.7H2O, 8; MgSO4, 2; glucose, 5; HEPES, 10; pH 7.4). Cells were isolated by enzymatic dissociation as previously described with minor modifications in Klockner, U. and Isenberg, G., Pflugers Arch. 1985, 405, 329-339, hereby incorporated by reference. The bladder was cut into small sections and incubated in 5 mL of the Kreb's solution containing 1 mg/mL collagenase (Sigma, St. Louis, Mo.) and 0.2 mg/mL pronase (Calbiochem, La Jolla, Calif.) with continuous stirring in a cell incubator for 30 minutes. The mixture was then centrifuged at 1300×g for 5 minutes, and the pellet resuspended in Dulbecco's PBS (GIBCO, Gaithersburg, Md.) and recentrifuged to remove residual enzyme. The cell pellet was resuspended in 5 mL growth media (composition: Dulbecco's modified Eagle's medium supplemented with 10% fetal bovine serum, 100 units/mL penicillin, 100 units/mL streptomycin and […] amphotericin B) and further dissociated by pipetting the suspension through a flame-polished Pasteur pipette and passing it through a polypropylene mesh membrane (Spectrum, Houston, Tex.). The cell density was adjusted to 100,000 cells/mL by resuspension in growth media. Cells were plated in clear-bottomed black 96-well plates (Packard) for membrane potential studies at a density of 20,000 cells/well and maintained in a cell incubator with 90% air: 10% CO2 until confluent. Cells were confirmed to be of smooth muscle type by cytoskeletal staining using a monoclonal mouse anti human-α-smooth muscle actin (Biomeda, Foster City, Calif.).
Functional activity at potassium channels was measured by evaluating changes in membrane potential using the bis-oxonol dye DiBAC(4)3 (Molecular Probes) in a 96-well cell-based kinetic assay system, Fluorescent Imaging Plate Reader (FLIPR) (K. S. Schroeder et al., J. Biomed. Screen., v. 1 pp. 75-81 (1996)), hereby incorporated by reference. DiBAC(4)3 is an anionic potentiometric probe which partitions between cells and extracellular solution in a membrane potential-dependent manner. With increasing membrane potential (for example, K^+ depolarization), the probe fuither partitions into the cell; this is measured as an increase in fluorescence due to dye interaction with intracellular lipids and proteins. Conversely, decreasing membrane potential (hyperpolarization by potassium channel openers) evokes a decrease in fluorescence.
Confluent guinea-pig urinary bladder cells cultured in black clear-bottomed 96-well plates were rinsed twice with […] assay buffer (composition, mM: HEPES, 20; NaCl, 120; KCl, 2; CaCl2, 2; MgCl2, 1; glucose, 5; pH 7.4 at 25° C.) containing 5 μM DiBAC(4)3 and incubated with […] of the buffer in a cell incubator for 30 minutes at 37° C. to ensure dye distribution across the membrane. After recording the baseline fluorescence for 5 minutes, the reference or test compounds, prepared at 10 times the concentration in the assay buffer, were added directly to the wells. Changes in fluorescence were monitored for an additional 25 minutes. Hyperpolarization responses were corrected for any background noise and were normalized to the response observed with 10 μM of the reference compound P1075, N″-cyano-N-(tert-pentyl)-N′-(3-pyridinyl)guanidine, which was assigned as 100%. P1075 is a potent opener of smooth muscle KATP channels (Quast et al., Mol. Pharmacol., v. 43 pp. 474-481 (1993)) and was prepared using the procedures described in (Manley, J. Med. Chem. (1992) 35, 2327-2340), hereby incorporated by reference. […]

Compound | Emax (Cavia porcellus) [%] | EC50 (Cavia porcellus) [µM] | Maximal Response (% P1075) | EC50 [µM]
COC(=O)C1=C(C)Nc2ccnc(Cl)c2C1c1ccc(F)c(Br)c1 (stereo not drawn) [Example 31, 4-(3-bromo-4-fluorophenyl)-5-chloro-3-(methoxycarbonyl)-2-methyl-1,4-dihydro[1,6]naphthyridine] | 93 | 0.039 | – | –
CC1=C(C#N)C(c2ccc(F)c(F)c2)C2=C(CCNC2=O)N1 (stereo not drawn) [Example 12, 4-(3,4-difluorophenyl)-3-cyano-2-methyl-4,6,7,8-tetrahydro[1,6]naphthyridin-5(1H)-one] | 89 | 0.89 | – | –
CC(=O)C1=C(C)Nc2cc[nH]c(=O)c2C1c1ccc(F)c(Br)c1 (stereo not drawn) [Example 19, 3-acetyl-4-(3-bromo-4-fluorophenyl)-2-methyl-4,6-dihydro[1,6]naphthyridin-5(1H)-one] | 104 | 0.62 | – | –
O=C1NCCC2=C1C(c1ccc(F)c(Br)c1)C(C(=O)c1ccccc1)=C(c1ccccc1)N2 (stereo not drawn) [Example 20, 3-benzoyl-4-(3-bromo-4-fluorophenyl)-2-phenyl-4,6,7,8-tetrahydro[1,6]naphthyridin-5(1H)-one] | 51 | 18 | – | –
CC1=C(C#N)C(c2ccc(Br)c(Br)c2)C2=C(CCNC2=O)N1 (stereo not drawn) [Example 11, 4-(3,4-dibromophenyl)-3-cyano-2-methyl-4,6,7,8-tetrahydro[1,6]naphthyridin-5(1H)-one] | 105 | 0.023 | – | –
CC1=C(C#N)C(c2ccc(F)c(Br)c2)C2=C(CCOC2=O)N1 (stereo not drawn) [Example 28, 4-(3-bromo-4-fluorophenyl)-3-cyano-2-methyl-1,4,7,8-tetrahydro-5H-pyrano[4,3-b]pyridin-5-one] | 82 | 0.022 | – | –
CC1=C(C#N)C(c2ccc(Cl)c([N+](=O)[O-])c2)C2=C(CCNC2=O)N1 (stereo not drawn) [Example 10, 4-(4-chloro-3-nitrophenyl)-3-cyano-2-methyl-4,6,7,8-tetrahydro[1,6]naphthyridin-5(1H)-one] | 110 | 0.14 | – | –
CC1=C(C#N)C(c2ccc(F)c(Br)c2)C2=C(CCNC2=O)N1 (stereo not drawn) [Example 3, 4-(3-bromo-4-fluorophenyl)-3-cyano-2-methyl-4 6,7,8-tetrahydro[1,6]naphthyridin-5(1H)-one] | – | – | 78 | 2.5
CC1=C(C#N)C(c2ccc(F)c(Br)c2)c2c(ccnc2Cl)N1 (racemic) [Example 32, 4-(3-bromo-4-fluorophenyl)-5-chloro-3-cyano-2-methyl-1,4-dihydro[1,6]naphthyridine] | 91 | 0.004 | – | –
CC1=C(C#N)C(c2cccc([N+](=O)[O-])c2)C2=C(CCNC2=O)N1 (stereo not drawn) [Example 9, 4-(3-nitrophenyl)-3-cyano-2-methyl-4,6,7,8-tetrahydro[1,6]naphthyridin-5(1H)-one] | 106 | 0.62 | – | –
CC1=C(C#N)C(c2ccc(F)c(C(F)(F)F)c2)C2=C(CCNC2=O)N1 (stereo not drawn) [Example 13, 4-[4-fluoro-3-(trifluoromethyl)phenyl]-3-cyano-2-methyl-4,6,7,8-tetrahydro[1,6]naphthyridin-5(1H)-one] | 99 | 0.35 | – | –
CC1=C(C#N)C(c2ccc(F)c(Br)c2)C2=C(CCNC2=O)N1 (racemic) [Example 1, 4-(3-bromo-4-fluorophenyl)-3-cyano-2-methyl-4,6,7,8-tetrahydro[1,6]naphthyridin-5(1H)-one] | 83 | 0.052 | – | –
CC(=O)C1=C(C)NC2=C(C(=O)NCC2)C1c1ccc(F)c(Br)c1 (stereo not drawn) [Example 17, 3-acetyl-4-(3-bromo-4-fluorophenyl)-2-methyl-4,6,7,8-tetrahydro[1,6]naphthyridin-5(1H)-one] | 45 | 14 | – | –
CC1=C(C#N)C(c2ccc(Cl)c(C(F)(F)F)c2)C2=C(CCNC2=O)N1 (stereo not drawn) [Example 16, 4-[4-chloro-3-(trifluoromethyl)phenyl]-3-cyano-2-methyl-4,6,7,8-tetrahydro[1,6]naphthyridin-5(1H)-one] | 109 | 0.18 | – | –
CC(=O)C1=C(C)Nc2cc[nH]c(=O)c2C1c1ccc(F)c(Br)c1 (racemic) [Example 18, 3-acetyl-4-(3-bromo-4-fluorophenyl)-2-methyl-4,6-dihydro[1,6]naphthyridin-5(1H)-one] | 83 | 0.74 | – | –
CC1=C(C#N)C(c2ccc(F)c(Br)c2)c2c(cc[nH]c2=O)N1 (racemic) [Example 4, 4-(3-bromo-4-fluorophenyl)-3-cyano-2-methyl-4,6-dihydro[1,6]naphthyridin-5(1H)-one] | 92 | 0.013 | – | –
CC1=C(C#N)C(c2ccc(F)c(Cl)c2)C2=C(CCNC2=O)N1 (stereo not drawn) [Example 15, 4-(3-chloro-4-fluorophenyl)-3-cyano-2-methyl-4,6,7,8-tetrahydro[1,6]naphthyridin-5(1H)-one] | 102 | 0.11 | – | –
CC1=C(C#N)C(c2ccc(Cl)c(Cl)c2)C2=C(CCNC2=O)N1 (stereo not drawn) [Example 8, 4-(3,4-dichlorophenyl)-3-cyano-2-methyl-4,6,7,8-tetahydro[1,6]naphthyridin-5(1H)-one] | – | – | 97 | 0.038
CC1=C(C#N)C(c2cc(F)c(F)cc2F)C2=C(CCNC2=O)N1 (stereo not drawn) [Example 14, 4-(2,4,5-trifluorophenyl)-3-cyano-2-methyl-4,6,7,8-tetrahydro[1,6]naphthyridin-5(1H)-one] | 84 | 2.6 | – | –
COC(=O)C1=C(C)NC2=C(C(=O)OCC2)C1c1ccc(F)c(C(F)(F)F)c1 (stereo not drawn) [Example 30, 4-[4-fluoro-3-(trifluoromethyl)phenyl]-3-methoxycarbonyl-2-methyl-1,4,7,8-tetrahydro-5H-pyrano[4,3-b]pyridin-5-one] | 52 | 4 | – | –
COC(=O)C1=C(C)NC2=C(C(=O)OCC2)C1c1ccc(F)c(Br)c1 (stereo not drawn) [Example 29, 4-(3-bromo-4-fluorophenyl)-3-methoxycarbonyl-2-methyl-1,4,7,8-tetrahydro-5H-pyrano[4,3-b]pyridin-5-one] | 81 | 0.019 | – | –
